Measured values as given in the NIST ThermoML archive (doi:10.1021/je400783h).

Conditions: for surface tension liquid-gas: Drop volume; for viscosity / speed of sound / mass density / vapor or sublimation pressure: Liquid; for viscosity: Capillary tube (Ostwald / Ubbelohde) method; for speed of sound: Pulse-echo method; for vapor or sublimation pressure: Ebulliometric method (Recirculating still)

Cc1ccc(C=O)o1 [5-methylfurfural]
Conditions	surface tension liquid-gas [mN/m]	vapor or sublimation pressure [kPa]
278.15 K	43.02	–
280.65 K	42.75	–
283.15 K	42.37	–
285.65 K	42.13	–
288.15 K	41.8	–
290.65 K	41.46	–
293.15 K	41.2	–
295.65 K	40.9	–
298.15 K	40.61	–
300.65 K	40.22	–
303.15 K	39.95	0.1
305.65 K	39.66	–
308.15 K	39.32	0.15
310.65 K	39.04	–
313.15 K	38.75	0.2
315.65 K	38.44	–
318.15 K	38.13	0.3
320.65 K	37.78	–
323.15 K	37.51	0.4
325.65 K	37.26	–
328.15 K	36.91	0.54
330.65 K	36.54	–
333.15 K	36.21	0.74
335.65 K	35.92	–
338.15 K	35.57	0.97
343.15 K	–	1.3
348.15 K	–	1.66
353.15 K	–	2.17
358.15 K	–	2.76
363.15 K	–	3.52
368.15 K	–	4.4
373.15 K	–	5.52
378.15 K	–	6.79
383.15 K	–	8.43
388.15 K	–	10.2
393.15 K	–	12.31
398.15 K	–	15
403.15 K	–	18
408.15 K	–	21.27
413.15 K	–	25.33
418.15 K	–	30.01
423.15 K	–	34.95
428.15 K	–	40.57
433.15 K	–	47.43
438.15 K	–	55.14
443.15 K	–	63.39
448.15 K	–	72.37
453.15 K	–	83.4

Conditions	mass density [kg/m3]	speed of sound [m/s]	viscosity [mPa·s]
278.15 K, 101.33 kPa	–	1521	3.164
280.65 K, 101.33 kPa	–	1511.8	2.974
283.15 K, 100 kPa	1118.02	–	–
283.15 K, 101.33 kPa	–	1502.5	2.764
283.15 K, 2500 kPa	1119.83	–	–
283.15 K, 5000 kPa	1121.37	–	–
283.15 K, 7500 kPa	1122.65	–	–
283.15 K, 10000 kPa	1124.02	–	–
283.15 K, 20000 kPa	1129.41	–	–
283.15 K, 30000 kPa	1134.53	–	–
283.15 K, 40000 kPa	1139.44	–	–
283.15 K, 50000 kPa	1144.14	–	–
283.15 K, 60000 kPa	1148.58	–	–
285.65 K, 101.33 kPa	–	1493.2	2.628
288.15 K, 100 kPa	1113.09	–	–
288.15 K, 101.33 kPa	–	1484	2.443
288.15 K, 2500 kPa	1114.82	–	–
288.15 K, 5000 kPa	1116.39	–	–
288.15 K, 7500 kPa	1117.87	–	–
288.15 K, 10000 kPa	1119.23	–	–
288.15 K, 20000 kPa	1124.75	–	–
288.15 K, 30000 kPa	1129.99	–	–
288.15 K, 40000 kPa	1134.99	–	–
288.15 K, 50000 kPa	1139.79	–	–
288.15 K, 60000 kPa	1144.31	–	–
290.65 K, 101.33 kPa	–	1474.7	2.297
293.15 K, 100 kPa	1108.15	–	–
293.15 K, 101.33 kPa	–	1465.5	2.175
293.15 K, 2500 kPa	1110.03	–	–
293.15 K, 5000 kPa	1111.5	–	–
293.15 K, 7500 kPa	1112.96	–	–
293.15 K, 10000 kPa	1114.4	–	–
293.15 K, 20000 kPa	1120.15	–	–
293.15 K, 30000 kPa	1125.46	–	–
293.15 K, 40000 kPa	1130.57	–	–
293.15 K, 50000 kPa	1135.4	–	–
293.15 K, 60000 kPa	1140.08	–	–
295.65 K, 101.33 kPa	–	1456.3	2.056
298.15 K, 100 kPa	1103.2	–	–
298.15 K, 101.33 kPa	–	1447	1.948
298.15 K, 2500 kPa	1104.82	–	–
298.15 K, 5000 kPa	1106.62	–	–
298.15 K, 7500 kPa	1108.34	–	–
298.15 K, 10000 kPa	1109.63	–	–
298.15 K, 20000 kPa	1115.43	–	–
298.15 K, 30000 kPa	1120.97	–	–
298.15 K, 40000 kPa	1126.15	–	–
298.15 K, 50000 kPa	1131.12	–	–
298.15 K, 60000 kPa	1135.84	–	–
300.65 K, 101.33 kPa	–	1437.8	1.853
303.15 K, 100 kPa	1098.25	–	–
303.15 K, 101.33 kPa	–	1428.7	1.757
303.15 K, 2500 kPa	1100.71	–	–
303.15 K, 5000 kPa	1101.81	–	–
303.15 K, 7500 kPa	1103.11	–	–
303.15 K, 10000 kPa	1104.89	–	–
303.15 K, 20000 kPa	1110.81	–	–
303.15 K, 30000 kPa	1116.44	–	–
303.15 K, 40000 kPa	1121.72	–	–
303.15 K, 50000 kPa	1126.87	–	–
303.15 K, 60000 kPa	1131.66	–	–
305.65 K, 101.33 kPa	–	1419.6	1.674
308.15 K, 100 kPa	1093.29	–	–
308.15 K, 101.33 kPa	–	1410.5	1.598
308.15 K, 2500 kPa	1095.01	–	–
308.15 K, 5000 kPa	1096.9	–	–
308.15 K, 7500 kPa	1098.15	–	–
308.15 K, 10000 kPa	1100.06	–	–
308.15 K, 20000 kPa	1106.17	–	–
308.15 K, 30000 kPa	1111.86	–	–
308.15 K, 40000 kPa	1117.24	–	–
308.15 K, 50000 kPa	1122.38	–	–
308.15 K, 60000 kPa	1127.34	–	–
310.65 K, 101.33 kPa	–	1401.4	1.527
313.15 K, 100 kPa	1088.32	–	–
313.15 K, 101.33 kPa	–	1392.3	1.461
313.15 K, 2500 kPa	1090.31	–	–
313.15 K, 5000 kPa	1092.06	–	–
313.15 K, 7500 kPa	1093.64	–	–
313.15 K, 10000 kPa	1095.27	–	–
313.15 K, 20000 kPa	1101.5	–	–
313.15 K, 30000 kPa	1107.37	–	–
313.15 K, 40000 kPa	1112.86	–	–
313.15 K, 50000 kPa	1118.1	–	–
313.15 K, 60000 kPa	1123.12	–	–
315.65 K, 101.33 kPa	–	1383.3	1.402
318.15 K, 100 kPa	1083.33	–	–
318.15 K, 101.33 kPa	–	1374.3	1.345
318.15 K, 2500 kPa	1085.42	–	–
318.15 K, 5000 kPa	1087.05	–	–
318.15 K, 7500 kPa	1088.71	–	–
318.15 K, 10000 kPa	1090.41	–	–
318.15 K, 20000 kPa	1096.72	–	–
318.15 K, 30000 kPa	1102.74	–	–
318.15 K, 40000 kPa	1108.39	–	–
318.15 K, 50000 kPa	1113.73	–	–
318.15 K, 60000 kPa	1118.89	–	–
320.65 K, 101.33 kPa	–	1365.3	1.292
323.15 K, 100 kPa	1078.33	–	–
323.15 K, 101.33 kPa	–	1356.1	1.241
323.15 K, 2500 kPa	1080.39	–	–
323.15 K, 5000 kPa	1082.17	–	–
323.15 K, 7500 kPa	1083.95	–	–
323.15 K, 10000 kPa	1085.56	–	–
323.15 K, 20000 kPa	1092.07	–	–
323.15 K, 30000 kPa	1098.22	–	–
323.15 K, 40000 kPa	1104.01	–	–
323.15 K, 50000 kPa	1109.47	–	–
323.15 K, 60000 kPa	1114.68	–	–
325.65 K, 101.33 kPa	–	1347.3	1.202
328.15 K, 100 kPa	1073.32	–	–
328.15 K, 101.33 kPa	–	1338.4	1.151
328.15 K, 2500 kPa	1075.43	–	–
328.15 K, 5000 kPa	1077.24	–	–
328.15 K, 7500 kPa	1079.03	–	–
328.15 K, 10000 kPa	1080.7	–	–
328.15 K, 20000 kPa	1087.38	–	–
328.15 K, 30000 kPa	1093.64	–	–
328.15 K, 40000 kPa	1099.55	–	–
328.15 K, 50000 kPa	1105.14	–	–
328.15 K, 60000 kPa	1110.48	–	–
330.65 K, 101.33 kPa	–	1329.5	1.11
333.15 K, 100 kPa	1068.3	–	–
333.15 K, 101.33 kPa	–	1320.5	1.072
333.15 K, 2500 kPa	1070.05	–	–
333.15 K, 5000 kPa	1072.29	–	–
333.15 K, 7500 kPa	1074.1	–	–
333.15 K, 10000 kPa	1075.84	–	–
333.15 K, 20000 kPa	1082.66	–	–
333.15 K, 30000 kPa	1089.1	–	–
333.15 K, 40000 kPa	1095.12	–	–
333.15 K, 50000 kPa	1100.86	–	–
333.15 K, 60000 kPa	1106.23	–	–
335.65 K, 101.33 kPa	–	1311.6	1.039
338.15 K, 100 kPa	1063.25	–	–
338.15 K, 101.33 kPa	–	1302.8	1.002
338.15 K, 2500 kPa	1065.43	–	–
338.15 K, 5000 kPa	1067.33	–	–
338.15 K, 7500 kPa	1069.06	–	–
338.15 K, 10000 kPa	1070.99	–	–
338.15 K, 20000 kPa	1077.96	–	–
338.15 K, 30000 kPa	1084.52	–	–
338.15 K, 40000 kPa	1090.69	–	–
338.15 K, 50000 kPa	1096.51	–	–
338.15 K, 60000 kPa	1102.02	–	–

101.33 kPa, Vibrating tube method
Conditions	mass density [kg/m3]
278.15 K	1122.94
280.65 K	1120.49
283.15 K	1118.02
285.65 K	1115.56
288.15 K	1113.09
290.65 K	1110.62
293.15 K	1108.15
295.65 K	1105.68
298.15 K	1103.2
300.65 K	1100.73
303.15 K	1098.25
305.65 K	1095.77
308.15 K	1093.29
310.65 K	1090.8
313.15 K	1088.32
315.65 K	1085.82
318.15 K	1083.33
320.65 K	1080.83
323.15 K	1078.33
325.65 K	1075.83
328.15 K	1073.32
330.65 K	1070.81
333.15 K	1068.3
335.65 K	1065.78
338.15 K	1063.25
